From US8501911B2, “Methods of reducing inflammation and mucus hypersecretion” (Biomarck Pharmaceuticals, Ltd, priority 1999, dated 2013)

Tested on: NHBE cells
Assay: Mucin secretion from NHBE cells exposed to kinase activators/reagents alone (ELISA)
Assay type: cell-based, human
Conditions: 15 min
Description: To determine the potential role of PKC and/or PKG in the mucin secretory process, NHBE cells were exposed to the following two specific protein kinase activators: the phorbol ester, phorbol 12-myristate 13-acetate (PMA), for activation of PKC, and the nonhydrolyzable cGMP analogue, 8-Br-cGMP, for activation of PKG.
NHBE Cell Culture—Expansion, cryopreservation, and culture of NHBE cells in the air/liquid interface were performed as described previously. See, Krunkosky et al. Briefly, NHBE cells (Clonetics, San Diego, Calif.) were seeded in vented T75 tissue culture flasks (500 cells/cm^2) and cultured until cells reached 75-80% confluence. Cells were then dissociated by trypsin/EDTA and frozen as passage-2. Air/liquid interface culture was initiated by seeding passage-2 cells (2×10^4 cells/cm^2) in […]® clear culture inserts (Costar, Cambridge, Mass.) that were thinly coated with rat tail collagen, type 1 (Collaborative Biomedical, Bedford, Mass.). Cells were cultured submerged in medium in a humidified 95% air, 5% CO2 environment for 5-7 days until nearly confluent. At that time, the air/liquid interface was created by removing the apical medium and feeding cells basalaterally. Medium was renewed daily thereafter. Cells were cultured for an additional 14 days to allow for full differentiation.
Measurement of Mucin Secretion by ELISA—Before collection of “base line” and “test” mucin samples, the accumulated mucus at the apical surface of the cells was removed by washing with phosphate-buffered saline, pH 7.2. To collect the base-line secretion, cells were incubated with medium alone, and secreted mucin in the apical medium was collected and reserved. Cells were rested for 24 h and then exposed to medium containing the selected stimulatory and/or inhibitory reagents (or appropriate controls), after which secreted mucin was collected and reserved as the test sample. Incubation times for the base line and the test were the same but varied depending on the test reagent utilized. Both base line and test secretions were analyzed by ELISA using an antibody capture method as known in the art. See, e.g., Harlow et al., Antibodies: A Laboratory Manual, pp. 570-573, Cold Spring Harbor Laboratory, Cold Spring Harbor, N.Y. (1988). The primary antibody for this assay was 17Q2 (Babco, Richmond, Calif.), a monoclonal antibody that reacts specifically with a carbohydrate epitope on human airway mucins. […] Wright et al., Am. J. Physiol. 271, L854-L861 (1996). Levels of mucin secretion were reported as percentage of the medium control.
Mucus secreted from the airway epithelial cells in vitro after stimulation by activators was assessed using an ELISA (antibody capture method) (E. Harlow, D. Lane. “Antibodies: A Laboratory Manual.” New York: Cold Spring Harbor Laboratory Press, 1988), wherein the collected mucus is bound directly to the ELISA plate. Mucus was detected using an antibody raised against monkey airway mucus (Lin et al. Am J Respir Cell Mol Biol 1:41, 1989).

SMILES | Mucin secretion as percent of control (reagent 100 nM alone) | Mucin secretion as percent of control (reagent 1 μM alone) | Mucin secretion as percent of control (reagent 1 μM together with PMA 100 nM)
CCCCCCCCCCCCCC(=O)O[C@@H]1[C@@H](C)[C@@]2(O)[C@@H](C=C(CO)C[C@@]3(O)C(=O)C(C)=C[C@@H]23)[C@@H]2C(C)(C)[C@]12OC(C)=O [4-alpha-PMA] | 104% |  | 
Nc1nc2c(nc(Br)n2[C@@H]2O[C@@H]3COP(O)(=S)O[C@H]3[C@H]2O)c(=O)[nH]1 (stereo partly drawn) [Rp-8-Br-cGMP] |  | 100% | 123%
